Experimental findings from patent US5994334A, “Androgen synthesis inhibitors” (priority 1997, dated 1999) are described below.

Assay type in all cases: biochemical
The target of assay [1] is T1, human 17α-hydroxylase/C17,20-lyase (Homo sapiens, UniProt P05093).
T1 construct: incubating human testicular microsomes; from tissue; host or cells: human testis, microsomes
T1 sequence (P05093 1-508): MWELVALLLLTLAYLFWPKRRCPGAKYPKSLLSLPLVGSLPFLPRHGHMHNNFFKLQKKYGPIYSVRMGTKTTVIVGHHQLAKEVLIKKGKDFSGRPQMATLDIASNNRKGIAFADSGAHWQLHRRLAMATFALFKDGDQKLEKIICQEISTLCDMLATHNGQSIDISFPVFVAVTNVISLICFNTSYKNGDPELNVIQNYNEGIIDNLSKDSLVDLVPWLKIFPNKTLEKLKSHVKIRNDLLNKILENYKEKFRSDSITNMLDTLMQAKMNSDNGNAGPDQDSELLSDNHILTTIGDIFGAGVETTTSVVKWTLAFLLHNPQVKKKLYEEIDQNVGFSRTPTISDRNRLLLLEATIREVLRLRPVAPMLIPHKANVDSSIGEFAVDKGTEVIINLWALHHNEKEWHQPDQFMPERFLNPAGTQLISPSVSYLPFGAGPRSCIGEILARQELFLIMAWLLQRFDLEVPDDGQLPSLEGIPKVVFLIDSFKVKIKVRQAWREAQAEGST
As to the kind of experiment: Inhibition of human testicular 17α-hydroxylase/C17,20-lyase (enzyme complex as a whole). The following applies: NI = no inhibition. On the procedure:
(§1) The conversion of radiolabeled pregnenolone to 17α-hydroxypregnenolone and DHEA by 17α-hydroxylase/C17,20 -lyase was measured by incubating human testicular microsomes with different concentration of test compounds. Reverse phase HPLC was used to separate and accurately quantify the amount of substrate and metabolites. The 17α-hydroxylase and C17,20 -lyase activities were calculated separately. The activity of 17α-hydroxylase was calculated from the conversion of pregnenolone to 17α-hydroxypregnenolone and DHEA and the activity of C17,20 -lyase was based on the conversion of pregnenolone to DHEA. Although 17α-hydroxypregnenolone is the substrate converted to DHEA by C17,20 -lyase, it has been reported that this 17α-hydroxy intermediate is not released from the enzyme binding site during conversion (Nakajin et al., 1981a,b). Also, there are species differences in substrate requirements. Pregnenolone is the natural substrate rather than progesterone for human testicular 17α-hydroxylase and C17,20 -lyase. Therefore, pregnenolone was used as substrate for measuring the activity of this enzyme complex.

In assay [2] the target is T2, Human Testicular 17α-Hydroxylase (Homo sapiens, UniProt P05093).
T2 construct: incubating human testicular microsomes; from tissue; host or cells: human testis, microsomes
T2 sequence (P05093 1-508): T1 sequence (P05093 1-508)
The assay can be described thus: Inhibition of human testicular 17α-hydroxylase (pregnenolone substrate, testicular microsomes). The following applies: for inhibition at 0.1 µM: read-out: % Inhibition 17α-hydroxylase, [I] = 100 nM; for inhibition at 0.4 µM: read-out: % Inhibition 17α-hydroxylase, [I] = 400 nM. On the procedure:
as §1

For assay [3], the target named is T3, Human Testicular C17,20-lyase (Homo sapiens, UniProt P05093).
T3 construct: incubating human testicular microsomes; from tissue; host or cells: human testis, microsomes
T3 sequence (P05093 1-508): T1 sequence (P05093 1-508)
As to the kind of experiment: Inhibition of human testicular C17,20-lyase (pregnenolone substrate, testicular microsomes). The following applies: for inhibition at 0.1 µM: read-out: % Inhibition C17,20-lyase, [I] = 100 nM; for inhibition at 0.4 µM: read-out: % Inhibition C17,20-lyase, [I] = 400 nM. On the procedure:
as §1

Where [4] appears, read: Table 1, NI = no inhibition, read-out: IC50 17α-OHase.
Where [5] appears, read: Table 1, NI = no inhibition, CI = complete inhibition, read-out: IC50 C17,20 lyase.

“Also recorded” adds a separate entry of the source. Where two headings read alike, the source gives them in different places.

For `C[C@H](N)[C@H]1CC[C@H]2[C@@H]3CC=C4C[C@@H](O)CC[C@]4(C)[C@H]3CC[C@]12C` [Compound I-10], the “inhibition of 17α-hydroxylase/C17,20-lyase (in words)” value (from here on “inhibition … (in words)”) in assay [1] is given as “poor inhibition”. Further, the IC50 was determined as 9800 nM in assay [2] (setting [4]) and 8000 nM in assay [3] (setting [5]).
The corresponding values for `CC(=O)[C@@]1(Br)CC[C@H]2[C@@H]3CC=C4C[C@@H](O)CC[C@]4(C)[C@H]3CC[C@@]21C` [Compound I-11] are “poor inhibition”, 1300 nM and 970 nM.
For `CC(=O)[C@@]12O[C@@H]1C[C@H]1[C@@H]3CC=C4C[C@@H](O)CC[C@]4(C)[C@H]3CC[C@@]12C` [Compound I-17], the “inhibition … (in words)” value in assay [1] was “decreased potency”. Further, the values for the IC50 in assay [2] (setting [4]) and in assay [3] (setting [5]) were 440 nM and 680 nM, respectively.
Take `CC(=O)O[C@H]1CC[C@@]2(C)C(=CC[C@@H]3[C@@H]2CC[C@]2(C)C(C(C)=O)=CC[C@@H]32)C1` [Compound I-37]: in assay [1], the “inhibition … (in words)” value is given as “less activity than the 3-hydroxy compound”. The figures for the IC50 in assay [2] (read-out: IC50 17α-OHase) and in assay [3] (read-out: IC50 C17,20 lyase) were 1890 nM and 1710 nM, respectively.
Turning to `C[C@H](c1c[nH]cn1)[C@H]1CC[C@H]2[C@@H]3CCC4=CC(=O)CC[C@]4(C)[C@H]3CC[C@]12C` [Compound I-45], the “inhibition … (in words)” value in assay [1] is listed as “did not show any activity”. Also, the IC50 in assay [2] (setting [4]) and in assay [3] (setting [5]) was > 30000 nM throughout.
On to `C[C@]12CC[C@H]3[C@@H](CC=C4C[C@@H](O)CC[C@@]43C)[C@@H]1CC[C@@H]2c1ncc[nH]1` [Compound L-1], for which the “inhibition … (in words)” value in assay [1] is “poor inhibition of 17α-hydroxylase/C17,20 -lyase”. Moreover, the inhibition at 0.1 µM in assay [2] (100 nM, first figure of pair) was determined as 22.8%; in assay [3] (100 nM, second figure of pair), 73.9%. Further, the inhibition at 0.4 µM came out at 23.7% in assay [2] (400 nM, first figure of pair) and 100% in assay [3] (400 nM, second figure of pair).
Consider `Cc1nc([C@H]2CC[C@H]3[C@@H]4CC=C5C[C@@H](O)CC[C@]5(C)[C@H]4CC[C@]23C)c[nH]1` [Compound L-4], for which the IC50 in assay [1] (one value for 17α-hydroxylase/lyase, read-out: IC50 17α-hydroxylase/lyase (single entry)) is 400 nM. In assay [2], the inhibition at 0.1 µM amounted to 13.8% and the inhibition at 0.4 µM turned out to be 41.9%. In assay [3], the inhibition at 0.1 µM was 70.2% and the inhibition at 0.4 µM is 100%.
`Cc1nc([C@H]2CC[C@H]3[C@@H]4CC=C5C[C@@H](O)CC[C@]5(C)[C@H]4CC[C@]23C)co1` [Compound L-5]: in assay [1], the “inhibition … (in words)” value is given as “less inhibition”. For the same compound, the inhibition at 0.1 µM in assay [2] (100 nM, first figure of pair) was 22.4%; in assay [3] (100 nM, second figure of pair), 71.2%. Further, the inhibition at 0.4 µM in assay [2] (400 nM, first figure of pair) was 26.5%; in assay [3] (400 nM, second figure of pair), 81.7%.
Regarding `CC(=O)O[C@H]1CC[C@@]2(C)C(=CC[C@@H]3[C@@H]2CC[C@]2(C)C(c4c[nH]cn4)=CC[C@@H]32)C1` [Compound L-12], in assay [1], the “inhibition … (in words)” value was “lower potency than I-49; also recorded: weaker inhibitor than I-49”. For the same compound, the inhibition at 0.1 µM in assay [2] (100 nM, first figure of pair) was determined as 62.4%; in assay [3] (100 nM, second figure of pair), 82.1%. Further, the inhibition at 0.4 µM is 89.3% in assay [2] (400 nM, first figure of pair) and 97% in assay [3] (400 nM, second figure of pair). In addition, the IC50 in assay [2] (setting [4]) was found to be 75 nM; in assay [2] (Table 3, first figure of 17α-hydroxylase/lyase pair, read-out: IC50 17α-hydroxylase), 74.6 nM; in assay [2] (first figure of pair, read-out: IC50 17α-hydroxylase) it was 75 nM; in assay [3] (setting [5]) it was 25 nM; in assay [3] (Table 3, second figure of pair, CI = complete inhibition, read-out: IC50 lyase), 24.8 nM; in assay [3] (second figure of pair, read-out: IC50 C17,20-lyase), 25 nM.
